Experimental data taken from patent US20250109140A1, “5-[5-(PIPERIDIN-4-YL)THIENO[3,2-C]PYRAZOL-2-YL]INDAZOLE DERIVATIVES AND RELATED COMPOUNDS AS MODULATORS FOR SPLICING NUCLEIC ACIDS AND FOR THE TREATMENT OF PROLIFERATIVE DISEASES” (REMIX THERAPUTICS INC., priority 2022, published 2025).
Where two headings read alike, the source gives them in different places.

Key:
Format in all cases: cell-based
MYB mRNA = assay: Splicing RT-qPCR assay, MYB canonical (CJ) and alternative (AJ) junction mRNA; conditions: Homo sapiens; for EC50: AC50 = 50% response in AJ mRNA increase
Experimental: (§1) Compounds described herein were used to modulate RNA transcript abundance in cells. The expression of a target mRNA was measured by detecting the formation of an exon-exon junction in the canonical transcript (CJ). A compound mediated exon-inclusion event was detected by observing an increase in formation of a new junction with an alternative exon (AJ). Real-time qPCR assays were used to detect these splicing switches and interrogate the potency of various compounds towards different target genes. A high-throughput real time quantitative PCR (RT-qPCR) assay was developed to measure these two isoforms of the mRNA (CJ and AJ) for exemplary genes, such as HTT, SMN2, and MYB, together with a control housekeeping gene, GAPDH or GUSB or PPIA, used for normalization. Briefly, the A673 or K562 cell line was treated with various compounds described herein (e.g., compounds of Formula (I)). After treatment, the levels of the HTT, MYB, or SMN2 mRNA targets were determined from each sample of cell lysate by cDNA synthesis followed by qPCR.
(§2) The A673 cell line was cultured in DMEM with 10% FBS. Cells were diluted with full growth media and plated in a 96-well plate (15,000 cells in 100 ul media per well). The plate was incubated at 37° C. with 5% CO2 for 24 hours to allow cells to adhere. An 11-point 3-fold serial dilution of the compounds was made in DMSO then diluted in media in an intermediate plate. Compounds were transferred from the intermediate plate to the cell plate with the top dose at a final concentration of 10 uM in the well. Final DMSO concentration was kept at or below 0.25%. The cell plate was returned to the incubator at 37° C. with 5% CO2 for an additional 24 hours.
(§3) The K562 cell line was cultured in IMDM with 10% FBS. For K562, cells were diluted with full growth media and plated in either a 96-well plate (50,000 cells in 50 uL media per well) or a 384-well plate (8,000-40,000 cells in 45 uL media per well). An 11-point 3-fold serial dilution of the compounds were made in DMSO then diluted in media in an intermediate plate. Compound was transferred from the intermediate plate to the cell plate with the top dose at a final concentration of 10 uM in the well. Final DMSO concentration was kept at or below 0.25%. Final volume was 100 uL for 96-well plate and 50 uL for 384-well plate. The cell plate was then placed in an incubator at 37° C. with 5% CO2 for 24 hours.
(§4) The cells were then gently washed with 50 uL-100 uL cold PBS before proceeding to addition of lysis buffer. 30 uL-50 uL of room temperature lysis buffer with DNAse I (and optionally RNAsin) was added to each well. Cells were shaken/mixed thoroughly at room temperature for 5-10 minutes for lysis to take place and then 3 uL-5 uL of room temperature stop solution was added and wells were shaken/mixed again. After 2-5 minutes, the cell lysate plate was transferred to ice for RT-qPCR reaction setup. The lysates could also be frozen at-80° C. for later use.
(§5) In some cases, a direct lysis buffer was used. An appropriate volume of 3× lysis buffer (10 mM Tris, 150 mM NaCl, 1.5%-2.5% Igepal and 0.1-1 U/uL RNAsin, pH 7.4) was directly added to either K562 or A673 cells in media and mixed by pipetting 3 times. The plates were then incubated at room temperature with shaking/rocking for 20-50 minutes to allow for lysis to take place. After this time, the cell lysate plate was transferred to ice to set up for the RT-qPCR reactions. The lysates could also be frozen at −80° C. for later use.
(§6) To set up 10 uL RT-qPCR reactions, cell lysates were transferred to 384-well qPCR plates containing the master mix according to the table below. The plates were sealed, gently vortexed, and spun down before the run. The volumes were adjusted accordingly in some instances where the reaction was carried in 20 μL. The table below summarizes the components of the RT-qPCR reactions:
(§7) The RT-qPCR reaction was performed using a QuantStudio (ThermoFisher) under the following fast cycling conditions. […]

HTT mRNA = assay: Splicing RT-qPCR assay, HTT canonical (CJ) and alternative (AJ) junction mRNA; conditions: Homo sapiens; for EC50: AC50 = 50% response in AJ mRNA increase
Experimental: as §1, §2, §3, §4, §5, §6, §7

SMN2 mRNA = assay: Splicing RT-qPCR gene panel, SMN2 canonical junction (CJ) mRNA; conditions: Homo sapiens; Table 8; larger gene panel, decrease in CJ mRNA levels
Experimental: as §1, §2, §3, §4, §5, §6, §7

Target C mRNA = assay: Splicing RT-qPCR gene panel, Target C canonical junction (CJ) mRNA; conditions: Homo sapiens; Table 8; larger gene panel, decrease in CJ mRNA levels
Experimental: as §1, §2, §3, §4, §5, §6, §7

[1] = Table 7, RT-qPCR, A673 or K562 cells, 24 hours treatment
[2] = Table 7, IC50 = 50% response in CJ mRNA decrease, RT-qPCR, A673 or K562 cells, 24 hours treatment, read-out: MYB CJ
[3] = Table 8, larger gene panel, decrease in CJ mRNA levels, read-out: MYB CJ IC50
[4] = Table 7, IC50 = 50% response in CJ mRNA decrease, RT-qPCR, A673 or K562 cells, 24 hours treatment, read-out: HTT CJ
[5] = Table 8, larger gene panel, decrease in CJ mRNA levels, read-out: HTT CJ IC50

Structure (SMILES)	EC50 (MYB mRNA; [1]) [nM]	IC50 (MYB mRNA; [2]) [nM]	IC50 (MYB mRNA; [3]) [nM]	EC50 (HTT mRNA; [1]) [nM]	IC50 (HTT mRNA; [4]) [nM]	IC50 (HTT mRNA; [5]) [nM]	IC50 (SMN2 mRNA) [nM]	IC50 (Target C mRNA) [nM]
CN(C)C1CCN(c2cc3sc(-c4cc(F)c5nn(C)cc5c4)nc3s2)CC1 [Compound 154, 1-[2-(7-fluoro-2-methylindazol-5-yl)thieno[2,3-d][1,3]thiazol-5-yl]-N,N-dimethylpiperidin-4-amine]	100 to 1000	100 to 1000	100 to 1000	100 to 1000	100 to 1000	100 to 1000	< 100	100 to 1000
CN(c1cc2sc(-c3ccc(-c4cn[nH]c4)cc3O)nc2s1)[C@@H]1C[C@H]2CC[C@@H](C1)N2 [Compound 191, 2-{5-[(1R,3R,5S)-8-azabicyclo[3.2.1]octan-3-yl(methyl)amino]thieno[2,3-d][1,3]-thiazol-2-yl}-5-(1H-pyrazol-4-yl)phenol]	> 10000	> 10000	> 10000	> 10000	> 10000	> 10000	> 10000	> 10000
Cc1cn2nc(-c3nc4sc(C5=CCOCC5)cc4s3)cc(C)c2n1 [Compound 195, 6-[5-(3,6-dihydro-2H-pyran-4-yl)thieno[2,3-d][1,3]thiazol-2-yl]-2,8-dimethylimidazo[1,2-b]pyridazine]	100 to 1000	100 to 1000	100 to 1000	100 to 1000	100 to 1000	100 to 1000	100 to 1000	100 to 1000
Cc1cn2nc(-c3nc4sc(C5CCOCC5)cc4s3)cc(C)c2n1 [Compound 196, 2,8-dimethyl-6-[5-(oxan-4-yl)thieno[2,3-d][1,3]thiazol-2-yl]imidazo[1,2-b]pyridazine]	1000 to 10000	1000 to 10000	1000 to 10000	1000 to 10000	1000 to 10000	1000 to 10000	1000 to 10000	1000 to 10000
Cc1cn2nc(-c3nc4sc(C5CCNC5)cc4s3)cc(C)c2n1 (centres unmarked) [Compound 197, 3-(2-{2,8-dimethylimidazo[1,2-b]pyridazin-6-yl}thieno [2,3-d][1,3]thiazol-5-yl)pyrrolidine]	100 to 1000	100 to 1000	100 to 1000	100 to 1000	100 to 1000	100 to 1000	100 to 1000	1000 to 10000
Cc1cn2nc(-c3nc4sc(C5=CCNCC5)cc4s3)cc(C)c2n1 [Compound 198, 4-(2-{2,8-dimethylimidazo[1,2-b]pyridazin-6-yl}thieno[2,3-d][1,3]thiazol-5-yl)-1,2,3,6-tetrahydropyridine]	100 to 1000	100 to 1000	100 to 1000	100 to 1000	< 100	100 to 1000	< 100	1000 to 10000
Cn1cc2cc(-c3nc4sc(N5CCC56CCNC6)cc4s3)cc(F)c2n1 (centres unmarked) [Compound 200, 5-(5-{1,6-diazaspiro[3.4]octan-1-yl}thieno[2,3-d][1,3]thiazol-2-yl)-7-fluoro-2-methy-lindazole]	> 10000	> 10000	> 10000	> 10000	> 10000	> 10000	1000 to 10000	> 10000
